Test system: ERK1/2
Experiment: MAP kinase activation: ERK1/2 phosphorylation level
Format: cell-based
Conditions: high C-13 concentration
Procedure: The association of SLP-76 with Vav and/or Nck plays a role in optimal MAP kinase activation in mast cells^27.
• 1) Chemical products and antibodies. A chemical bank of 3000 molecules (a varied subset) was acquired from ChemBridge, Inc. (San Diego, Calif.). Stocks of solutions of small molecules were prepared at a rate of 10 mM in DMSO (dimethylsulphoxide), except for C-13 (methyl 2-{5-[(3-benzyl-4-oxo-2-thioxo-1,3-thiazolidin-5-ylidene)methyl]-2-furyl}benzoate, ChemBridge ID No. 6197026) prepared in DMF (dimethylformamide). Unless specified otherwise, all the reagents were supplied by Sigma. Dinitrophenyl (DNP) hapten was acquired from Calbiochem. Sepharose GammaBind G and all the secondary antibodies were supplied by GE Health Amersham Biosciences. […] The binding of G4G11 with Syk was assessed by adding the 9E10 monoclonal antibody conjugated with HRP detecting the amino acid sequence EQKLISEEDLN of human c-myc protein located at the C-terminal end of the scFv fragment. To generate Syk mutants, targeted mutagenesis was used on GST:Syk 6-242 protein and the binding of G4G11 with the mutants was assessed in the presence of 5 μM of C-13. • 3) Cells, culture conditions and functional tests. […] The level of β-hexosaminidase released was measured 10 min later and the TNF-α titration was performed by means of a cytotoxicity test on L929 cells as described previously^10, 3 hours after stimulation. […]

## COC(=O)c1ccccc1-c1ccc(/C=C2/SC(=S)N(Cc3ccccc3)C2=O)o1 [Molecule C-13, methyl 2-{5-[(3-benzyl-4-oxo-2-thioxo-1,3-thiazolidin-5-ylidene)methyl]-2-furyl}benzoate]
  phosphorylation level ERK1/2: reduces

Reference: patent US9504676B2, “Molecules inhibiting a metabolic pathway involving the Syk protein tyrosine kinase and method for identifying said molecules” (CENTRE NATIONAL DE LA RECHERCHE SCIENTIFIQUE, priority 2008, dated 2016)
